Experimental data from patent US11007282B2, “Compositions for circulatory system visualization” (DICRONIS SAGL, priority 2015, dated 2021).

Columns and labels:
[1] = In vitro fluorescence quantification of PVP-ICG formulations (Kollidon 17 PF), microplate reader; settings: λEx/Em 770/818 nm
[2] = in vivo; cited from earlier work

CC1(C)C(/C=C/C=C/C=C/C=C2\N(CCCCS(=O)(=O)O)c3ccc4ccccc4c3C2(C)C)=[N+](CCCCS(=O)(=O)[O-])c2ccc3ccccc3c21 [ICG, sodium 4-[2-[(1E,3E,5E,7Z)-7-[1,1-dimethyl-3-(4-sulfonatobutyl)benzo[e]indol-2-ylidene]hepta-1,3,5-trienyl]-1,1-imethylbenzo[e]-indol-3-ium-3-yl]butane-1-sulfonate]
n-fold increase of ICG fluorescence in presence of PVP compared to water solution ([1]; ICG 0.025 mg/mL, Kollidon 17 PF 0.25 g/mL (1:10'000)): 1.32 n-fold | n-fold increase of ICG fluorescence in presence of PVP compared to water solution ([1]; ICG 0.06 mg/mL, Kollidon 17 PF 0.25 g/mL (1:4'166)): 1.68 n-fold | n-fold increase of ICG fluorescence in presence of PVP compared to water solution ([1]; ICG 0.15 mg/mL, Kollidon 17 PF 0.25 g/mL (1:1'666)): 2.2 n-fold | route of excretion [2]: excreted exclusively in the bile
